Measurements reported in US20260193268A1, “TRICYCLIC PI3Ka INHIBITOR, PREPARATION METHOD THEREFOR, AND PHARMACEUTICAL USE THEREOF” (WIGEN BIOMEDICINE TECHNOLOGY (SHANGHAI) CO., LTD., priority 2022, published 2026).
Where two headings read alike, the source gives them in different places.

What was measured:
[1] = test system: HCC1954 cells (with PI3Kα H1047R mutation); test: In vitro inhibition of HCC1954 cell proliferation (CellTiter-Lumi); format: cell-based
Experimental: Assay for In Vitro Inhibition of HCC1954 Cell Proliferation by Compounds of the Present Disclosure
The growth of the cells was evaluated, and the IC50 for the inhibition of cell growth by the compounds was calculated.

[2] = test system: MCF-7 cells (with PI3Kα E545K mutation); test: In vitro inhibition of MCF-7 cell proliferation (CellTiter-Lumi); format: cell-based
Procedure, shortened: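 MCF-7 (PI3Kα E545K) seeded at 2000 cells/well; serially diluted compounds added next day and exposed for 144 h. Cellular ATP read by CellTiter-Lumi luminescence; IC50 for growth inhibition calculated.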

[3] = Homo sapiens, HCC1954, 144 h, HCC1954 cells, 144 h, CellTiter-Lumi, class symbols, read-out: Inhibitory activity against HCC1954 cells (IC50), class symbols
[4] = Homo sapiens, MCF7, 144 h, class symbols, read-out: Inhibitory activity against MCF-7 cells (IC50), class symbols
[5] = HCC1954 cells, 144 h, CellTiter-Lumi, numeric values, read-out: Inhibitory activity against HCC1954 cells (IC50)
[6] = 144 h, numeric values, read-out: Inhibitory activity against MCF-7 cells (IC50)
[7] = Homo sapiens, HCC1954, 144 h, read-out: Inhibitory activity against HCC1954 cells (IC50), class symbols

IC50 [1, 3] | IC50 [2, 4] | IC50 [1, 5] | IC50 [2, 6] | Compound | IC50 [1, 7]
< 50 nM | < 50 nM |  |  | CN(C1COC1)C(C)(C)C=C(C#N)C(=O)Nc1ccc(N2CC(N3CCN(c4ccc5c(c4)-c4nc(N6C(=O)OC[C@H]6C(F)F)cn4CCO5)CC3)C2)nn1 [Compound 295] | 
< 50 nM | < 50 nM |  |  | CC(C)(C=C(C#N)C(=O)Nc1ccc(N2CC(N3CCN(c4ccc5c(c4)-c4nc(N6C(=O)OC[C@H]6C(F)F)cn4CCO5)CC3)C2)nn1)NC1COC1 [Compound 296] | 
< 50 nM | < 50 nM |  |  | CC(C)(N)C=C(C#N)C(=O)Nc1ccc(N2CC(N3CCN(c4ccc5c(c4)-c4nc(N6C(=O)OC[C@H]6C(F)F)cn4CCO5)CC3)C2)nn1 [Compound 297] | 
< 50 nM | < 50 nM |  |  | CNC(C)(C)C=C(C#N)C(=O)Nc1ccc(N2CC(N3CCN(c4ccc5c(c4)-c4nc(N6C(=O)OC[C@H]6C(F)F)cn4CCO5)CC3)C2)cn1 [Compound 298] | 
< 50 nM | < 50 nM |  |  | CNC(C)(C)C=C(C#N)C(=O)Nc1ccc(N2CC(N3CCN(c4ccc5c(c4)-c4nc(N6C(=O)OC[C@H]6C(F)F)cn4CCO5)CC3)C2)nn1 [Compound 299] | 
< 50 nM | < 50 nM |  |  | CNC(C)(C)C=C(C#N)C(=O)Nc1ncc(N2CC(N3CCN(c4ccc5c(c4)-c4nc(N6C(=O)OC[C@H]6C(F)F)cn4CCO5)CC3)C2)cn1 [Compound 300] | 
< 50 nM | < 50 nM |  |  | COCCNC(C)(C)C=C(C#N)C(=O)Nc1ccc(N2CC(N3CCN(c4ccc5c(c4)-c4nc(N6C(=O)OC[C@H]6C(F)F)cn4CCO5)CC3)C2)cn1 [Compound 301] | 
< 50 nM | < 50 nM |  |  | COCCNC(C)(C)C=C(C#N)C(=O)Nc1ncc(N2CC(N3CCN(c4ccc5c(c4)-c4nc(N6C(=O)OC[C@H]6C(F)F)cn4CCO5)CC3)C2)cn1 [Compound 302] | 
< 50 nM | < 50 nM |  |  | COCCNC(C)(C)C=C(C#N)C(=O)Nc1ccc(N2CC(N3CCN(c4ccc5c(c4)-c4nc(N6C(=O)OC[C@H]6C(F)F)cn4CCO5)CC3)C2)nn1 [Compound 303] | 
< 50 nM | < 50 nM |  |  | CC(C)(C=C(C#N)C(=O)Nc1ccc(N2CC(N3CCN(c4ccc5c(c4)-c4nc(N6C(=O)OC[C@H]6C(F)F)cn4CCO5)CC3)C2)cc1)N1CCN(C2COC2)CC1 [Compound 304] | 
< 50 nM | < 50 nM |  |  | COCCN1CCN(C(C)(C)C=C(C#N)C(=O)Nc2ccc(N3CC(N4CCN(c5ccc6c(c5)-c5nc(N7C(=O)OC[C@H]7C(F)F)cn5CCO6)CC4)C3)cc2)CC1 [Compound 305] | 
< 50 nM | < 50 nM |  |  | CC(C)(C=C(C#N)C(=O)Nc1ccc(N2CC(N3CCN(c4ccc5c(c4)-c4nc(N6C(=O)OC[C@H]6C(F)F)cn4CCO5)CC3)C2)cc1)N1CCNCC1 [Compound 306] | 
< 50 nM | < 50 nM |  |  | CN1CCN(C(C)(C)C=C(C#N)C(=O)Nc2ccc(N3CC(N4CCN(c5ccc6c(c5)-c5nc(N7C(=O)OC[C@H]7C(F)F)cn5CCO6)CC4)C3)cc2)CC1 [Compound 307] | 
< 50 nM | < 50 nM |  |  | CN1CCN(C(C)(C)C=C(C#N)C(=O)Nc2ccc(N3CC(N4CCN(c5ccc6c(c5)-c5nc(N7C(=O)OC[C@H]7C(F)F)cn5CCO6)CC4)C3)cc2)CC1=O [Compound 308] | 
< 50 nM | < 50 nM |  |  | CC1CN(C(C)(C)C=C(C#N)C(=O)Nc2ccc(N3CC(N4CCN(c5ccc6c(c5)-c5nc(N7C(=O)OC[C@H]7C(F)F)cn5CCO6)CC4)C3)cc2)CC(C)N1 (stereo partly shown) [Compound 309] | 
< 50 nM | < 50 nM |  |  | CC(=O)N1CCN(C(C)(C)C=C(C#N)C(=O)Nc2ccc(N3CC(N4CCN(c5ccc6c(c5)-c5nc(N7C(=O)OC[C@H]7C(F)F)cn5CCO6)CC4)C3)cc2)CC1 [Compound 310] | 
< 50 nM | < 50 nM |  |  | COC(=O)N1CCN(C(C)(C)C=C(C#N)C(=O)Nc2ccc(N3CC(N4CCN(c5ccc6c(c5)-c5nc(N7C(=O)OC[C@H]7C(F)F)cn5CCO6)CC4)C3)cc2)CC1 [Compound 311] | 
< 50 nM | < 50 nM |  |  | CC(C)(C=C(C#N)C(=O)Nc1ccc(N2CC(N3CCN(c4ccc5c(c4)-c4nc(N6C(=O)OC[C@H]6C(F)F)cn4CCO5)CC3)C2)cc1)N1CCC2(CC1)COC2 [Compound 312] | 
< 50 nM | < 50 nM |  |  | CC(C)(C=C(C#N)C(=O)Nc1ccc(N2CC(N3CCN(c4ccc5c(c4)-c4nc(N6C(=O)OC[C@H]6C(F)F)cn4CCO5)CC3)C2)cc1)N1CC2(CCOCC2)C1 [Compound 313] | 
< 50 nM | < 50 nM |  |  | CC(C)(C=C(C#N)C(=O)Nc1ccc(N2CC(N3CCN(c4ccc5c(c4)-c4nc(N6C(=O)OC[C@H]6C(F)F)cn4CCO5)CC3)C2)cc1)N1CC(C2COC2)C1 [Compound 314] | 

IC50 [1, 3] | IC50 [2, 4] | IC50 [1, 5] | IC50 [2, 6] | Compound | IC50 [1, 7]
< 50 nM | < 50 nM |  |  | CC(C)(C)C=C(C#N)C(=O)Nc1ccc(N2CC(N3CCN(c4cc5c(cc4F)OCCn4cc(N6C(=O)OC[C@H]6C(F)F)nc4-5)CC3)C2)cc1 [Compound 315] | 
< 50 nM | < 50 nM |  |  | CC(C)(C)C=C(C#N)C(=O)Nc1ccc(N2CC(N3CCN(c4cc(F)c5c(c4)-c4nc(N6C(=O)OC[C@H]6C(F)F)cn4CCO5)CC3)C2)cc1 [Compound 316] | 
< 50 nM | < 50 nM |  |  | CC(C)(C)C=C(C#N)C(=O)Nc1ccc(N2CC(N3CCN(c4cc5c(cc4O)OCCn4cc(N6C(=O)OC[C@H]6C(F)F)nc4-5)CC3)C2)cc1 [Compound 317] | 
< 50 nM | < 50 nM |  |  | COc1cc2c(cc1N1CCN(C3CN(c4ccc(NC(=O)C(C#N)=CC(C)(C)C)cc4)C3)CC1)-c1nc(N3C(=O)OC[C@H]3C(F)F)cn1CCO2 [Compound 318] | 
< 50 nM | < 50 nM |  |  | CNc1cc2c(cc1N1CCN(C3CN(c4ccc(NC(=O)C(C#N)=CC(C)(C)C)cc4)C3)CC1)-c1nc(N3C(=O)OC[C@H]3C(F)F)cn1CCO2 [Compound 319] | 
< 50 nM | < 50 nM |  |  | Cc1cc2c(cc1N1CCN(C3CN(c4ccc(NC(=O)C(C#N)=CC(C)(C)C)cc4)C3)CC1)-c1nc(N3C(=O)OC[C@H]3C(F)F)cn1CCO2 [Compound 320] | 
< 50 nM | < 50 nM |  |  | CC(C)(C)C=C(C#N)C(=O)Nc1ccc(N2CC(N3CCN(c4ccc5c(c4)-c4nc(N6C(=O)OC[C@H]6C(F)F)c(F)n4CCO5)CC3)C2)cc1 [Compound 321] | 
< 50 nM | < 50 nM |  |  | CC(C)(C)C=C(C#N)C(=O)Nc1ccc(N2CC(N3CCN(c4ccc5c(c4)-c4nc(N6C(=O)OC[C@H]6C(F)F)c(C6CC6)n4CCO5)CC3)C2)cc1 [Compound 322] | 
< 50 nM | < 50 nM |  |  | Cc1c(N2C(=O)OC[C@H]2C(F)F)nc2n1CCOc1ccc(N3CCN(C4CN(c5ccc(NC(=O)C(C#N)=CC(C)(C)C)cc5)C4)CC3)cc1-2 [Compound 323] | 
 |  | 0.1 nM | 0.1 nM | CC(C)(C=C(C#N)C(=O)Nc1ccc(N2CC(N3CCN(c4ccc5c(c4)-c4nc(N6C(=O)OC[C@H]6C(F)F)cn4CCO5)CC3)C2)cc1)NC(=O)OC(C)(C)C [Compound 324A] | 
 |  | 6.2 nM | 2.6 nM | CC(C)(C=C(C#N)C(=O)Nc1ccc(N2CC(N3CCN(c4ccc5c(c4)-c4nc(N6C(=O)OC[C@H]6C(F)F)cn4CCO5)CC3)C2)cc1)NC(=O)OC(C)(C)C [Compound 324B] | 
< 50 nM | < 50 nM |  |  | CC(=O)NC(C)(C)C=C(C#N)C(=O)Nc1ccc(N2CC(N3CCN(c4ccc5c(c4)-c4nc(N6C(=O)OC[C@H]6C(F)F)cn4CCO5)CC3)C2)cc1 [Compound 325] | 
< 50 nM | < 50 nM |  |  | CC(C)(C)OC(=O)NC1(C=C(C#N)C(=O)Nc2ccc(N3CC(N4CCN(c5ccc6c(c5)-c5nc(N7C(=O)OC[C@H]7C(F)F)cn5CCO6)CC4)C3)cc2)CC1 [Compound 326] | 
< 50 nM | < 50 nM |  |  | CC(C)(C=C(C#N)C(=O)Nc1ccc(N2CC(N3CCN(c4ccc5c(c4)-c4nc(N6C(=O)OC[C@H]6C(F)F)cn4CCO5)CC3)C2)cc1)NS(C)(=O)=O [Compound 327] | 
< 50 nM | < 50 nM |  |  | CC(=O)OCNC(C)(C)C=C(C#N)C(=O)Nc1ccc(N2CC(N3CCN(c4ccc5c(c4)-c4nc(N6C(=O)OC[C@H]6C(F)F)cn4CCO5)CC3)C2)cc1 [Compound 328] | 
< 50 nM | < 50 nM |  |  | CC(C)(C=C(C#N)C(=O)Nc1ccc(N2CC(N3CCN(c4ccc5c(c4)-c4nc(N6C(=O)OC[C@H]6C(F)F)cn4CCO5)CC3)C2)cc1)NCOC(=O)C(C)(C)C [Compound 329] | 
< 50 nM | < 50 nM |  |  | CC(C)(C=C(C#N)C(=O)Nc1ccc(N2CC(N3CCN(c4ccc5c(c4)-c4nc(N6C(=O)OC[C@H]6C(F)F)cn4CCO5)CC3)C2)cc1)NCOP(=O)(OCOC(=O)C(C)(C)C)OCOC(=O)C(C)(C)C [Compound 333] | 
< 50 nM | < 50 nM |  |  | CC(C)OC(=O)OCOP(=O)(OCNC(C)(C)C=C(C#N)C(=O)Nc1ccc(N2CC(N3CCN(c4ccc5c(c4)-c4nc(N6C(=O)OC[C@H]6C(F)F)cn4CCO5)CC3)C2)cc1)OCOC(=O)OC(C)C [Compound 334] | 
< 50 nM | < 50 nM |  |  | CN(C(=O)OC(C)(C)C)C(C)(C)C=C(C#N)C(=O)Nc1ccc(N2CC(N3CCN(c4ccc5c(c4)-c4nc(N6C(=O)OC[C@H]6C(F)F)cn4CCO5)CC3)C2)cc1 [Compound 335] | 

Compound | IC50 [1, 3] | IC50 [2, 4] | IC50 [1, 5] | IC50 [2, 6] | IC50 [1, 7]
CCOP(=O)(OCC)OCNC(C)(C)C=C(C#N)C(=O)Nc1ccc(N2CC(N3CCN(c4ccc5c(c4)-c4nc(N6C(=O)OC[C@H]6C(F)F)cn4CCO5)CC3)C2)cc1 [Compound 331] |  | < 50 nM |  |  | < 50 nM
CCOP(=O)(NC(C)(C)C=C(C#N)C(=O)Nc1ccc(N2CC(N3CCN(c4ccc5c(c4)-c4nc(N6C(=O)OC[C@H]6C(F)F)cn4CCO5)CC3)C2)cc1)OCC [Compound 332] |  | < 50 nM |  |  | < 50 nM
